From patent publication US20230192705A1, “SHP2 INHIBITORS, COMPOSITIONS AND USES THEREOF” (Betta Pharmaceuticals Co., Ltd, priority 2020, published 2023)
Read-outs that look alike come from different tables or passages of the source.

Columns and labels:
[1] = In vitro metabolic stability in human liver microsome; type: in vitro ADME; conditions: human liver microsomes
Procedure: (§1) 1900 mg MgCl2 was dissolved into a final volume of 400 mL ultra-pure water.
(§2) 17.42 g K2HPO4 and 13.65 g KH2PO4 were dissolved into a final volume of 1000 mL ultra-pure water, respectively. K2HPO4 and KH2PO4 were mixed to prepare 100 mM potassium phosphate (PBS) buffer. The pH value of the final solution was adjusted to pH 7.30±0.10.
(§3) Cold ACN (including 10 ng/mL Labetalol and 10 ng/mL Glibenclamid) was stored at 4° C.
(§4) Working Solution Preparation:
(§5) Verapamil (positive control) and test compound stock solution were diluted into a concentration of 50 μM and 200 μM respectively, using MeOH/ACN/H2O solution (1:1:2, v/v/v).
(§6) 1) 40 μL MgCl2 and 306 μL PBS were added to 96 plate wells (blank, compound wells, compounds without NADPH wells)
(§7) 2) 4 μL compound working solution was added to above wells (blank: 4 μL PBS buffer) (Note: the volume of DMSO in final incubation system ≤0.5%)
(§8) 3) 10 μL microsomes (20 mg/mL) was added in each well. The mixture was warmed up for 10 minutes at 37.0° C.
(§9) 4) 40 μL 10 mM NADPH working solution was added to start reaction. The total volume was 400 μL.
(§10) 5) Aliquots of 50 μL samples were taken from the reaction solution at 0, 5, 15, 45 min. The reaction solutions were stopped by the addition of 400 μL stop solution.
(§11) 6) The sampling plates were shaked for approx. 5 min.
(§12) 7) Samples were centrifuged at 3200 rcf for 10 min. then transferred 50 μL to a new plate dilute with 200 μL H2O for LC/MS/MS analysis.
(§13) Use equation of first order kinetics to calculate t1/2 and CL: […]
(§14) Where k represents elimination constant, which is calculated from a log linear plot of % Remaining versus time. t1/2 represents the half-life. Cprotein is the concentration of liver microsomes.

leukemia MV-4-11 cell = assay: Cell proliferation assay (CellTiter-Glo), MV-4-11; type: cell-based; conditions: Homo sapiens, MV4-11, MV-4-11, 120 hrs, CTG, read-out: Compound on MV-4-11 cell IC50
[2] = In vitro metabolic stability in rat liver microsome; type: in vitro ADME; conditions: rat liver microsomes
Procedure: as §1, §2, §3, §4, §5, §6, §7, §8, §9, §10, §11, §12, §13, §14

| SMILES | CLint Human [1] | IC50 (leukemia MV-4-11 cell; class symbols) | CLint Rat [2] | IC50 (leukemia MV-4-11 cell; numeric values) |
| --- | --- | --- | --- | --- |
| N[C@@H]1c2ccccc2CC12CCN(c1nc3[nH]nc(C4(c5ccc(C(F)(F)F)cc5)CC4)c3c(=O)[nH]1)CC2 [Example 228, (S)-6-(1-amino-1,3-dihydrospiro[indene-2,4′-piperidin]-1′-yl)-3-(1-(4-(trifluoromethyl)phenyl)cyclo-propyl)-1,5-dihydro-4H-pyrazolo[3,4-d]pyrimidin-4-one] | 6.2 μL/min/mg proteins | 20 to 60 nM | 12.4 μL/min/mg proteins |  |
| N[C@@H]1c2ccccc2CC12CCN(c1nc3[nH]nc(C4(c5cccs5)CC4)c3c(=O)[nH]1)CC2 [Example 24, (S)-6-(1-amino-1,3-dihydrospiro[indene-2,4′-piperidin]-1′-yl)-3-(1-(thiophen-2-yl)cyclopropyl)-1,5-dihydro-4H-pyrazolo[3,4-d]pyrimidin-4-one] |  | ≤ 20 nM |  |  |
| N[C@@H]1c2ccccc2CC12CCN(c1nc3[nH]nc(C4(c5csnn5)CC4)c3c(=O)[nH]1)CC2 [Example 240, (S)-3-(1-(1,2,3-thiadiazol-4-yl)cyclopropyl)-6-(1-amino-1,3-dihydrospiro[indene-2,4′-piperidin]-1′-yl)-1,5-dihydro-4H-pyrazolo[3,4-d]pyrimidin-4-one] | 11.8 μL/min/mg proteins | ≤ 20 nM | 15.0 μL/min/mg proteins |  |
| Cn1c(N2CCC3(CC2)Cc2ccccc2[C@H]3N)nc2[nH]nc(C3(c4ccccc4)CC3)c2c1=O [Example 1] | 95.2 μL/min/mg proteins | ≤ 20 nM | 34.7 μL/min/mg proteins |  |
| N[C@@H]1c2ccccc2CC12CCN(c1nc3[nH]nc(C4(c5cccc(F)c5)CC4)c3c(=O)[nH]1)CC2 [Example 6, (S)-6-(1-amino-1,3-dihydrospiro[indene-2,4′-piperidin]-1′-yl)-3-(1-(3-fluorophenyl)cyclopropyl)-1,5-dihydro-4H-pyrazolo[3,4-d]pyrimidin-4-one] | 19.5 μL/min/mg proteins |  | 11.2 μL/min/mg proteins | 6.5 nM |
| N[C@@H]1c2ccccc2CC12CCN(c1nc3[nH]nc(C4(c5ccc6c(c5)OCO6)CC4)c3c(=O)[nH]1)CC2 [Example 34, (S)-6-(1-amino-1,3-dihydrospiro[indene-2,4′-piperidin]-1′-yl)-3-(1-(benzo[d][1,3]dioxol-5-yl)cyclopropyl)-1,5-dihydro-4H-pyrazolo[3,4-d]pyrimidin-4-one] | 16.5 μL/min/mg proteins | ≤ 20 nM | 19.1 μL/min/mg proteins |  |
| N[C@@H]1c2ccccc2CC12CCN(c1nc3[nH]nc(C4(c5ccc(Cl)c(Cl)c5)CC4)c3c(=O)[nH]1)CC2 [Example 21, (S)-6-(1-amino-1,3-dihydrospiro[indene-2,4′-piperidin]-1′-yl)-3-(1-(3,4-dichlorophenyl)cyclopropyl)-1,5-dihydro-4H-pyrazolo[3,4-d]pyrimidin-4-one] | 10.4 μL/min/mg proteins | ≤ 20 nM | 3.8 μL/min/mg proteins |  |
| Nc1ccc(C2(c3n[nH]c4nc(N5CCC6(CC5)Cc5ccccc5[C@H]6N)[nH]c(=O)c34)CC2)cc1 [Example 230, (S)-6-(1-amino-1,3-dihydrospiro[indene-2,4′-piperidin]-1′-yl)-3-(1-(4-aminophenyl)cyclopropyl)-1,5-dihydro-4H-pyrazolo[3,4-d]pyrimidin-4-one] | 9.2 μL/min/mg proteins |  | 3.2 μL/min/mg proteins |  |
| N[C@@H]1c2ccccc2CC12CCN(c1nc3[nH]nc(C4(c5cccc(C(F)(F)F)c5)CC4)c3c(=O)[nH]1)CC2 [Example 8, (S)-6-(1-amino-1,3-dihydrospiro[indene-2,4′-piperidin]-1′-yl)-3-(1-(3-(trifluoromethyl)plienyl)cyclo-propyl)-1,5-dihydro-4H-pyrazolo[3,4-d]pyrimidin-4-one] | 9.2 μL/min/mg proteins |  | 11.6 μL/min/mg proteins | 6.1 nM |
| N[C@@H]1c2ccccc2CC12CCN(c1nc3[nH]nc(C4(c5ccc6c(c5)OC(F)(F)O6)CC4)c3c(=O)[nH]1)CC2 [Example 13, (S)-6-(1-amino-1,3-dihydrospiro[indene-2,4′-piperidin]-1′-yl)-3-(1-(2,2-difluorobenzo[d][1,3]dioxol-5-yl)cyclopropyl)-1,5-dihydro-4H-pyrazolo[3,4-d]pyrimidin-4-one] | 9.8 μL/min/mg proteins | ≤ 20 nM | 14.3 μL/min/mg proteins |  |
| N[C@@H]1c2ccccc2CC12CCN(c1nc3[nH]nc(C4(c5ccc(O)cc5)CC4)c3c(=O)[nH]1)CC2 [Example 234, (S)-6-(1-amino-1,3-dihydrospiro[indene-2,4′-piperidin]-1′-yl)-3-(1-(4-hydroxyphenyl)cyclopropyl)-1,5-dihydro-4H-pyrazolo[3,4-d]pyrimidin-4-one] | 10.4 μL/min/mg proteins |  | 6.6 μL/min/mg proteins |  |
| N[C@@H]1c2ccccc2CC12CCN(c1nc3[nH]nc(C4(c5ccc(F)cc5)CC4)c3c(=O)[nH]1)CC2 [Example 11, (S)-6-(1-amino-1,3-dihydrospiro[indene-2,4′-piperidin]-1′-yl)-3-(1-(4-fluorophenyl)cyclopropyl)-1,5-dihydro-4H-pyrazolo[3,4-d]pyrimidin-4-one] | 8.6 μL/min/mg proteins |  | 6.6 μL/min/mg proteins | 1.2 nM |
| N[C@@H]1c2ccccc2CC12CCN(c1nc3[nH]nc(C4(c5ccccc5)CC4(F)F)c3c(=O)[nH]1)CC2 (stereo partly drawn) [Example 9, 6-((S)-1-amino-1,3-dihydrospiro[indene-2,4′-piperidin]-1′-yl)-3-(2,2-difluoro-1-phenylcyclopropyl)-1,5-dihydro-4H-pyrazolo[3,4-d]pyrimidin-4-one] | 16.9 μL/min/mg proteins | ≤ 20 nM | 10.5 μL/min/mg proteins |  |
| N[C@@H]1c2ccccc2CC12CCN(c1nc3[nH]nc(C4(c5ccccc5)COC4)c3c(=O)[nH]1)CC2 [Example 96, (S)-6-(1-amino-1,3-dihydrospiro[indene-2,4′-piperidin]-1′-yl)-3-(3-phenyloxetan-3-yl)-1,5-dihydro-4H-pyrazolo[3,4-d]pyrimidin-4-one] |  | 20 to 60 nM |  |  |
| N[C@@H]1c2ccccc2CC12CCN(c1nc3[nH]nc(C4(c5ccccc5)CC4)c3c(=O)[nH]1)CC2 [Example 33] | 10.6 μL/min/mg proteins | ≤ 20 nM | 17.4 μL/min/mg proteins |  |
| N#Cc1ccc(C2(c3n[nH]c4nc(N5CCC6(CC5)Cc5ccccc5[C@H]6N)[nH]c(=O)c34)CC2)cc1 [Example 237, (S)-4-(1-(6-(1-amino-1,3-dihydrospiro[indene-2,4′-piperidin]-1′-yl)-4-oxo-4,5-dihydro-1H-pyrazolo[3,4-d]pyrimidin-3-yl)cyclopropyl)benzonitrile] |  | ≤ 20 nM |  |  |
